This is an account of results in paper PMC5915154, “Aloe-emodin as drug candidate for cancer therapy” (Oncotarget, 2018).

For test [1], the system named is multidrug-resistant P-glycoprotein-overexpressing CEM/ADR5000 leukemia cells. Nature of the test: Resazurin reduction assay, CEM/ADR5000. The test is classed as cell-based, human. Conditions: for IC50: Homo sapiens, CEM/ADR5000, resazurin assay, 72 h. From the text: (§1) The cell lines used in the present work, their origins and maintenance conditions were previously reported. In brief, drug-sensitive CCRF-CEM and multidrug resistant P-glycoprotein-over-expressing CEM/ADR5000 leukemia cells, MDA-MB-231-pcDNA3 breast cancer cells and their transfectant subline MDA-MB-231-BCRP clone 23, HCT116 (p53^+/+) colon cancer cells and its knockout clone HCT116 (p53^-/-), U87.MG glioblastoma multiform cells and their transfectant subline U87.MGΔEGFR as well as HEK293 human embryonic kidney cells transfected with or without a cDNA for ABCB5 were used. The human peripheral mononuclear cells (PMNC) were isolated from fresh blood samples of a healthy donor by using Histopaque® (Sigma-Aldrich, Taufkirchen, Germany).
(§2) Resazurin reduction assay was conducted to test the cytotoxicity of the compounds. This assay is based on the reduction of resazurin to resorufin by viable cells. […] Briefly, aliquots of 0.5×10^4 adherent cells which were allowed to attach overnight and 1×10^4 suspension cells per well were seeded in 96-well-plates with or without the addition of varying concentrations of the test substance to get a total volume of 200 μL/well. After 72 h incubation and addition of resazurin (Sigma-Aldrich) for 4 h, staining was measured by an Infinite M2000 ProTM plate reader (Tecan, Germany) using an excitation wavelength of 544 nm and an emission wavelength of 590 nm. Each assay was independently performed for at least three times, with six parallel replicates each. The protocol has been recently reported. Fifty percent inhibition concentrations (IC50) represent the drug concentrations required to inhibit 50% of cell proliferation, which were fitted with nonlinear regression using GraphPad® Prism7.
In general terms: The colour change of resazurin is a common sign of viable cells or microbes.

The test system of test [2] is drug-sensitive CCRF-CEM leukemia cells. In words: Resazurin reduction assay, CCRF-CEM. Type of test: cell-based. As to conditions: Homo sapiens, 72 h.
Excerpt: as §1, §2

In test [3] the test system is CCRF-CEM cells. Nature of the test: Annexin V/PI detection of apoptosis and necrosis. Type of test: cell-based, human. As to conditions: 0.1 μM, 72 h. From the text:
A commercial annexin V/PI detection apoptosis kit was used to detect early apoptosis and necrosis according to the manufacturer’s instructions (Life Technologies, Carlsbad, CA, USA). Annexin V is a calcium-dependent phospholipid-binding protein, which binds to phosphatidylserine (PS). PS is predominantly located at the inner side of the plasma membrane under normal conditions and moves to outer surface of the membrane upon the onset of early apoptosis. This can be detected FITC-labeled annexin V. PI is a marker of late apoptosis and necrosis. We treated aliquots of 1×10^6 CCRF-CEM cells with 0.5-, 1-, 2- and 4-fold IC50 of Aloe-emodin for 48, 72 or 96 h, respectively. After washing the cells with PBS, they were stained with annexin V/FITC at room temperature for 10-15 min. Subsequently, cells were washed again and stained with PI in the dark. Then, the results were analyzed by a BD Accuri™ C6 flow cytometer at excitation wavelength 488 nm and emission wavelength 530 nm to record annexin V/FITC signals. The fluorescence of PI was detected at 488 nm excitation and was measured by a 610/20 nm band pass filter. At least three independent experiments were performed..

For test [4], the system named is CCRF-CEM cells. In words: Cell cycle analysis (PI, flow cytometry). The test is classed as cell-based, human. As to conditions: 0.01 μM and 0.1 μM, 24 h. The procedure: The cells were collected, washed in PBS and fixed with ice-cold 96% ethanol. After washing the cells with PBS again, the cells were dissolved in PBS and stained with propidium iodide (PI, Sigma-Aldrich) at a final concentration of 50 μg/mL for 15 min in the dark. Cell cycle analyses were performed using a BD Accuri™ C6 Flow cytometer (Becton-Dickinson, Heidelberg, Germany) at 488 nm excitation wavelength, and emission was measured by a 610/20 nm band pass filter. All experiments were performed at least in triplicates. The protocol has been recently reported by us.
On the technique in general: In flow cytometry, cells or beads pass a laser one at a time.

For test [5], the system named is CCRF-CEM cells. Nature of the test: Mitochondrial membrane potential (JC-1, flow cytometry). Type of test: cell-based, human. As to conditions: CCRF-CEM, 0.01, 0.1, and 1 μM, 48 h. From the text: The JC-1 Mitochondrial Membrane Potential Assay Kit (Cayman Chemical, Ann Arbor, MI, USA) was applied for the detection of MMP by flow cytometry according to the manufacturer’s instructions. The cationic dye, 5, 5’, 6, 6’- tetrachloro- 1, 1’, 3, 3’- tetraethylbenzimidazolylcarbocyanine iodide (JC-1) enters the mitochondria and changes its fluorescent properties based on the aggregation of the probe. In healthy cells having high MMP, JC-1 forms complexes known as J-aggregates with intense red fluorescence. On the other hand, in cells with low MMP, JC-1 remains in its monomeric form showing green fluorescence. […] A LSR-Fortessa FACS analyzer (Becton–Dickinson) was used to detect the J-aggregate form of JC-1 with an excitation wavelength of 535 ± 20 nm and an emission wavelength of 590 ± 20 nm as well as the monomeric form of JC-1 at excitation and emission wavelengths of 485 and 535 nm, respectively. The results were analyzed by the FlowJo software (Celeza, Olten, Switzerland). 2×10^4 cells were counted for each experiment which were repeated in triplicate.

For the compound `O=C(O)c1cc(O)c2c(c1)C(=O)c1cccc(O)c1C2=O` [rhein], the half-inhibitory concentration (IC50) (commonly the concentration needed to halve the response being measured) came to 46.9 µM in test [1] and 34.4 µM in test [2].
As for `Cc1cc(O)c2c(c1)C(=O)c1cc(O)cc(O)c1C2=O` [emodin, Emodin], the values for the IC50 in test [1] and in test [2] were 35.3 µM and 35.6 µM, respectively.
`COc1cc(O)c2c(c1)C(=O)c1cc(C)cc(O)c1C2=O` [physcion]: the IC50 in test [1] is 74.8 µM; in test [2], 124 µM. The “degree of resistance (IC50 CEM/ADR5000 divided by IC50 CCRF-CEM)” value in test [1] (collateral sensitivity of CEM/ADR5000) stood at 0.61 fold.
As for `COc1cccc2c1C(=O)c1c(O)c3c(c(O)c1C2=O)C[C@@](O)(C(=O)CO)C[C@@H]3O[C@H]1C[C@H](N)[C@H](O)[C@H](C)O1` [doxorubicin, Doxorubicin, reference compound], the “apoptotic or necrotic cell death” value in test [3] was “late apoptosis and early necrosis”. The IC50 was 11 µM in test [1] and 0.0007 µM in test [2]. Also, the cell cycle arrest result in test [4] was “induced both S- and G2/M-arrest”. In addition, the “MMP depolarization (JC-1 fluorescence)” value in test [5] is recorded as “shift from red to green fluorescence”.
